From the Biogen ADME set (Fang et al. 2023)
Converted amounts (≈) assume the structure as drawn.

Details: for aqueous solubility: pH 6.8

Row | SMILES | MDR1-MDCK efflux ratio | aqueous solubility | intrinsic clearance, human liver microsomes | intrinsic clearance, rat liver microsomes | fraction unbound, human plasma | fraction unbound, rat plasma
1 | CCCCOc1ccc(-c2cc3c(=O)[nH]ccn3n2)cc1 | 0.743 | 0.2 µg/mL (≈ 0.706 µM) |  |  |  | 
2 | Cc1cc(F)c(C(=O)Nc2cccc(-c3nncn3C(C)C)n2)cc1-n1cnc(C2CC2)c1 |  | 64.8 µg/mL (≈ 145 µM) |  |  |  | 
3 | CC(C)(O)Cn1nc(-c2ccccc2)c2c(Cl)c(-c3ccccc3)nnc21 | 0.725 |  | ≤ 4.74 mL/min/kg | 85.5 mL/min/kg |  | 
4 | CCOC(=S)SCC(=O)Nc1nc(-c2ccc(C3CCCCC3)cc2)cs1 | 0.229 | 2.18 µg/mL (≈ 5.18 µM) | 267 mL/min/kg | 1390 mL/min/kg |  | 
5 | Cc1ncc(C)n2nc([C@@H]3C[C@H]3c3nc4c5cccnc5ccn4c3C)nc12 | 1.4 |  | 16.1 mL/min/kg | 82.1 mL/min/kg |  | 
6 | CCc1c2c(nc3ccc(O)cc13)-c1cc3c(c(=O)n1C2)COC(=O)[C@]3(O)CC | 50.8 |  | 18.3 mL/min/kg | ≤ 10.7 mL/min/kg |  | 
7 | Cc1cnn(CC(=O)NCCCn2cc(Cl)cn2)c1 | 2.34 |  | ≤ 4.74 mL/min/kg | 47.2 mL/min/kg |  | 
8 | COc1cccc(-c2nnn(-c3ncnc4sc5c(c34)CCC5)n2)c1 |  | 0.26 µg/mL (≈ 0.742 µM) |  |  |  | 
9 | N#Cc1cnc2cc(F)cc(F)c2c1NC1CCN(CC(N)=O)CC1 | 15 |  | ≤ 4.74 mL/min/kg | 27.4 mL/min/kg |  | 
10 | C=CC(=O)N1CCC([C@@H]2CCNc3c(C(N)=O)c(-c4ccc(Oc5ccccc5)cc4)nn32)CC1 | 50.8 |  | 57.8 mL/min/kg | 573 mL/min/kg | 0.0931 | 0.0171
11 | Cc1nnc(NCC(=O)N2CCc3sccc3C2)c(C#N)c1C | 1.31 | 35.8 µg/mL (≈ 109 µM) | 17.3 mL/min/kg | 267 mL/min/kg |  | 
12 | Cc1nnc(-c2cccc(C(=O)O)c2)o1 |  | 34.4 µg/mL (≈ 168 µM) | ≤ 4.74 mL/min/kg | ≤ 10.7 mL/min/kg |  | 
13 | Cc1cc(CN(C)Cc2cscn2)no1 | 0.537 | 28.6 µg/mL (≈ 128 µM) | ≤ 4.74 mL/min/kg | 24.9 mL/min/kg |  | 
14 | Cc1cc2ccccc2n1CC(=O)N(C)Cc1cnn(C)c1 | 2.14 | 47.5 µg/mL (≈ 160 µM) |  |  |  | 
15 | COc1ccc(Cc2noc(-c3cccc4c3OCC(=O)N4)n2)cc1 |  |  | 18.6 mL/min/kg | 148 mL/min/kg |  | 
16 | Cc1c(Cl)cccc1NC(=O)C(C)N1CCCN(c2nccs2)CC1 (configuration not stated) | 0.958 | 48.2 µg/mL (≈ 127 µM) | 928 mL/min/kg | 4390 mL/min/kg |  | 

Row | SMILES | MDR1-MDCK efflux ratio | aqueous solubility | intrinsic clearance, human liver microsomes | intrinsic clearance, rat liver microsomes | fraction unbound, human plasma | fraction unbound, rat plasma
17 | C=CCN(C)CCCCCCOc1ccc(C(=O)c2ccc(Br)cc2)c(F)c1 |  | 21.4 µg/mL (≈ 47.7 µM) | 31.1 mL/min/kg | 320 mL/min/kg |  | 
18 | CN1C(=O)COc2ccc(NC(=O)CCN3C(=O)COc4ccc(Cl)cc43)cc21 | 9.31 | 1.5 µg/mL (≈ 3.61 µM) | 155 mL/min/kg | 1170 mL/min/kg |  | 
19 | CC(=O)N1CCN(c2c(Cl)cccc2NC(=O)COc2ccccc2Cl)CC1 |  | 19.5 µg/mL (≈ 46.2 µM) | 430 mL/min/kg | 3580 mL/min/kg | 0.0181 | 
20 | O=C(Nc1cn(CCOCC(F)(F)F)nc1-c1ccccn1)c1coc(-c2cn[nH]c2)n1 | 6.03 |  | 51.7 mL/min/kg | 518 mL/min/kg |  | 
21 | CC(C)Cc1n[nH]c(-c2ccc(N3CCN(C)CC3)cc2)n1 | 3.36 |  | ≤ 4.74 mL/min/kg | 236 mL/min/kg |  | 
22 | Cc1ccc(O)c(CN2CCC(c3nc4ccccc4o3)CC2)n1 | 0.688 |  | 22.2 mL/min/kg | 229 mL/min/kg |  | 
23 | NC(=O)c1sc2cc(F)ccc2c1Cl |  | 0.5 µg/mL (≈ 2.18 µM) |  |  |  | 
24 | Cc1cc(NC(=O)C2CCN(c3ccncc3Cl)CC2)no1 | 0.457 | 29 µg/mL (≈ 90.4 µM) | 12.7 mL/min/kg | 186 mL/min/kg |  | 
25 | CC1Cc2ccccc2N1C(=O)CN1CCC(n2c(=O)[nH]c3ccccc32)CC1 (configuration not stated) | 29 | 54.8 µg/mL (≈ 140 µM) | 61.3 mL/min/kg | 1030 mL/min/kg |  | 
26 | Nc1nc2ccccc2n1CCCc1ccccc1 | 0.966 | 27.2 µg/mL (≈ 108 µM) | 13.4 mL/min/kg | 463 mL/min/kg |  | 
27 | COc1cccc(-n2c(S)nnc2COc2cccc3ccccc23)c1 | 1.07 | 0.26 µg/mL (≈ 0.715 µM) |  |  |  | 
28 | CN(C)S(=O)(=O)N1CCC(c2ccc3c(NCc4ccccc4F)n[nH]c3n2)CC1 | 3.07 | 0.15 µg/mL (≈ 0.347 µM) |  |  |  | 
29 | Cc1nc(C)c(C)c(NCc2cc(-c3ccc(F)cc3)no2)n1 | 0.906 | 37.5 µg/mL (≈ 120 µM) | 20.3 mL/min/kg | 242 mL/min/kg |  | 
30 | CCOc1cc(-c2nnc(NC(=O)c3cccc(C(F)(F)F)c3)o2)cc(OCC)c1OCC |  |  | 7.61 mL/min/kg | 17.5 mL/min/kg |  | 
31 | Cc1cccc(-c2nc(C34CCC(C(N)=O)(CC3)CC4)[nH]c2-c2ccc3c(c2)OCO3)n1 |  |  |  |  | 0.105 | 0.0162
